Like-named read-outs stand apart in the source and are kept apart here.
Legend:
Experiment in all cases: biochemical
MYT1 = biological target: T1, MYT1 (Homo sapiens, UniProt Q99640)
T1 sequence (Q99640 1-499): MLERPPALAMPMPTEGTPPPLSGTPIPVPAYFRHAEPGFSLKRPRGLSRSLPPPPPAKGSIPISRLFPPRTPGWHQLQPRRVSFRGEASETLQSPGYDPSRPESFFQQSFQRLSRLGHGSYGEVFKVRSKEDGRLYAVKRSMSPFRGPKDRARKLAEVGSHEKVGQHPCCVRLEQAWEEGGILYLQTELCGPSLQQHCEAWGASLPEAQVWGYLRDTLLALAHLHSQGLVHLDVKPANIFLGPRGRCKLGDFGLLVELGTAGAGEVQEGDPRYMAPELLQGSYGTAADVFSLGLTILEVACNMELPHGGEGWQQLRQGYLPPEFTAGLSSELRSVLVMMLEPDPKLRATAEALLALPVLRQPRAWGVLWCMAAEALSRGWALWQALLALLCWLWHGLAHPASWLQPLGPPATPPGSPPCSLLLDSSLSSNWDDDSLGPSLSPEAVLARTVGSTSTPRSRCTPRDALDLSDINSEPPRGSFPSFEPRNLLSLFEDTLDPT

TLK1 = biological target: T2, TLK1 (Homo sapiens, UniProt Q9UKI8)
T2 sequence (Q9UKI8 1-766): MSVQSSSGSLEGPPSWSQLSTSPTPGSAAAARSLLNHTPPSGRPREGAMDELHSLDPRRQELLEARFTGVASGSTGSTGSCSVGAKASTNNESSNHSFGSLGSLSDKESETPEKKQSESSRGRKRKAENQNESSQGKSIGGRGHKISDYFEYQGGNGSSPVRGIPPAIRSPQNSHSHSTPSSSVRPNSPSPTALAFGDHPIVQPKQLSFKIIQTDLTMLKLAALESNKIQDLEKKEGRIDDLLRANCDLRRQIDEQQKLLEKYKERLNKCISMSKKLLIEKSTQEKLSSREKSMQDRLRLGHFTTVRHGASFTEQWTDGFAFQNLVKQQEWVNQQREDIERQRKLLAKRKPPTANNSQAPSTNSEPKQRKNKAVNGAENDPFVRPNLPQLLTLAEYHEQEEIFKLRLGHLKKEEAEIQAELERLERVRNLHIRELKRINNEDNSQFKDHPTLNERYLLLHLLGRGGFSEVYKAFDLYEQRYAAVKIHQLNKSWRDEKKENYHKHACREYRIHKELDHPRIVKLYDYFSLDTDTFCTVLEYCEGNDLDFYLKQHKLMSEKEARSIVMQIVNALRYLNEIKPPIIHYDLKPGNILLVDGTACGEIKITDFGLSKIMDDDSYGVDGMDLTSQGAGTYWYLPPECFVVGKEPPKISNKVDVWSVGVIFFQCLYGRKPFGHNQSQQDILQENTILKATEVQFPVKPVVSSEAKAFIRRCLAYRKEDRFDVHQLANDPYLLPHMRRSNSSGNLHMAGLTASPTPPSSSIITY

TTK = biological target: T3, TTK (Homo sapiens, UniProt P33981)
T3 sequence (P33981 1-857): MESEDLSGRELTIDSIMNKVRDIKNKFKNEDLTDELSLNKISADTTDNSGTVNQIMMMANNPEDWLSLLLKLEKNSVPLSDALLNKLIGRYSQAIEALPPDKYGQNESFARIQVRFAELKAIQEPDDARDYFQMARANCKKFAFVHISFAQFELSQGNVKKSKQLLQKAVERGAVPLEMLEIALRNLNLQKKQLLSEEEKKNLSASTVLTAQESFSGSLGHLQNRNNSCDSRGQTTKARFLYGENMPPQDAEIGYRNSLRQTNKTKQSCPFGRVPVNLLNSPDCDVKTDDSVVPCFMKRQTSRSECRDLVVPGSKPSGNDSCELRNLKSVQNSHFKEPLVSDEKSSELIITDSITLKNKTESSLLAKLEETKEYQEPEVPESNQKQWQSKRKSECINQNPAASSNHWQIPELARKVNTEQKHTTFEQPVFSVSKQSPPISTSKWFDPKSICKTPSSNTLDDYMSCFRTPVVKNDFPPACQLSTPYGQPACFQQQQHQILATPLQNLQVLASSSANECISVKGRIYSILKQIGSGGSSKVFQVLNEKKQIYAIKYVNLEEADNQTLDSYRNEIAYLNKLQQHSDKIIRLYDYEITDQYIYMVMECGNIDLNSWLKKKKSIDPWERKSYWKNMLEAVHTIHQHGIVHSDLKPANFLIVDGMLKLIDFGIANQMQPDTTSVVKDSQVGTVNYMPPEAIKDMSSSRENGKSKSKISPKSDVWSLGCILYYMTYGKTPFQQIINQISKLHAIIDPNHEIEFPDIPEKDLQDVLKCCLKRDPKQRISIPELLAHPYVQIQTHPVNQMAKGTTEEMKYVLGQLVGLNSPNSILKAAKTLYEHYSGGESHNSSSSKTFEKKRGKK

Question: How did the ΔTm at 10 µM (MYT1; read-out: dTm 8) turn out when CNc1ncc2cc(-c3cc(Cl)ccc3Cl)c(=O)n(CCCCN)c2n1 [compound 8, 8-(4-Aminobutyl)-6-(2,5-dichlorophenyl)-2-(methylamino)pyrido[2,3-d]pyrimidin-7(8H)-one] was run?
Answer: Its ΔTm at 10 µM is 0.3 °C.

Question: And the ΔTm at 10 µM (TLK1; read-out: dTm 8)?
Answer: The ΔTm at 10 µM was 1 °C.

Question: And the ΔTm at 10 µM (TTK; read-out: dTm 8)?
Answer: The ΔTm at 10 µM was 0.5 °C.

Question: How did the ΔTm at 10 µM (MYT1; read-out: dTm 9) turn out when CNc1ncc2cc(-c3cc(C(F)(F)F)ccc3Cl)c(=O)n(CCCCN)c2n1 [compound 9, 8-(4-Aminobutyl)-6-(2-chloro-5-(trifluoromethyl)phenyl)-2-(methylamino)pyrido[2,3-d]pyrimidin-7(8H)-one] was run?
Answer: Its ΔTm at 10 µM is -0.2 °C.

Question: What about the ΔTm at 10 µM (TLK1; read-out: dTm 9) of the same compound?
Answer: The ΔTm at 10 µM was 0.7 °C.

Question: And the ΔTm at 10 µM (TTK; read-out: dTm 9)?
Answer: Its ΔTm at 10 µM is -0.5 °C.

Question: How did the ΔTm at 10 µM (MYT1; read-out: dTm 10) turn out when CNc1ncc2cc(-c3cc(Cl)ccc3Br)c(=O)n(CCCCN)c2n1 [compound 10, 8-(4-Aminobutyl)-6-(2-bromo-5-chlorophenyl)-2-(methylamino)pyrido[2,3-d]pyrimidin-7(8H)-one] was run?
Answer: Its ΔTm at 10 µM is 0.6 °C.

Question: And the ΔTm at 10 µM (TLK1; read-out: dTm 10)?
Answer: The ΔTm at 10 µM was 0.5 °C.

Question: And the ΔTm at 10 µM (TTK; read-out: dTm 10)?
Answer: The ΔTm at 10 µM was 0.5 °C.

Question: Which results are given for CNc1ncc2cc(-c3cc(Br)ccc3Br)c(=O)n(CCCCN)c2n1 [compound 11, 8-(4-Aminobutyl)-6-(2,5-dibromophenyl)-2-(methylamino)pyrido[2,3-d]pyrimidin-7(8H)-one]?
Answer: ΔTm at 10 µM (MYT1; read-out: dTm 11): -0.4 °C; ΔTm at 10 µM (TLK1; read-out: dTm 11): 1 °C; ΔTm at 10 µM (TTK; read-out: dTm 11): 0.2 °C

Question: CNc1ncc2cc(-c3cc(F)c(-c4cccc(C)n4)cc3F)c(=O)n(CCCCN)c2n1 [compound 12, 8-(4-Aminobutyl)-6-(2,5-difluoro-4-(6-methylpyridin-2-yl)phenyl)-2-(methylamino)pyrido[2,3-d]pyrimidin-7(8H)-one] was tested. Which ΔTm at 10 µM (MYT1; read-out: dTm 12) did it give?
Answer: The ΔTm at 10 µM was -1.8 °C.

Question: What about the ΔTm at 10 µM (TLK1; read-out: dTm 12) of the same compound?
Answer: Its ΔTm at 10 µM is -1.5 °C.

Question: What about the ΔTm at 10 µM (TTK; read-out: dTm 12) of the same compound?
Answer: The ΔTm at 10 µM was -0.7 °C.

Source: paper doi:10.1101/2023.03.24.534094v2 (biorxiv, 2023)
